Assay results published in ChEMBL document CHEMBL4706683 (J Med Chem, 2021).
Calls of active or inactive are those of the source. The calls are words filed in the database; no cut-off is given here.

What was measured:
[1] = Half life in Balb/c mouse at 5 mg/kg, ip administered as single dose measured upto 24 hrs by LC-MS/MS analysis; type: ADME, organism-based; conditions: in vivo
Plasmodium falciparum [2] = experiment: Antiplasmodial activity against artemisinin-resistant ring stage Plasmodium falciparum 6320 infected in human erythrocytes assessed as reduction in parasite growth incubated for 72 hrs by Giemsa staining based light microscopic method; type: functional, organism-based; conditions: Plasmodium falciparum, 6320, Erythrocyte
Plasmodium yoelii = experiment: Antiplasmodial activity against blood stage Plasmodium yoelii infected in Balb/c mouse assessed as reduction in parasitemia at 60 mg/kg, ip QD for 5 consecutive days and measured on day 30 by microscopic analysis; type: functional, organism-based; conditions: time 5.0 day
Plasmodium falciparum [3] = experiment: Antiplasmodial activity against Plasmodium falciparum GB4 infected in human erythrocytes assessed as reduction in parasite growth incubated for 72 hrs by Giemsa staining based light microscopic method; type: functional, organism-based; conditions: GB4, Erythrocyte
[4] = molecular target: T1, NAD-dependent protein deacetylase sirtuin-2 (Homo sapiens, UniProt Q8IXJ6); experiment: Inhibition of human C-terminal His-tagged SIRT2 (50 to 356 residues) expressed in Escherichia coli using Ac-peptide as substrate preincubated for 15 mins followed by substrate addition and incubated for 240 mins followed by trypsin addition and further incubated for 120 mins
T1 sequence (Q8IXJ6 whole entry): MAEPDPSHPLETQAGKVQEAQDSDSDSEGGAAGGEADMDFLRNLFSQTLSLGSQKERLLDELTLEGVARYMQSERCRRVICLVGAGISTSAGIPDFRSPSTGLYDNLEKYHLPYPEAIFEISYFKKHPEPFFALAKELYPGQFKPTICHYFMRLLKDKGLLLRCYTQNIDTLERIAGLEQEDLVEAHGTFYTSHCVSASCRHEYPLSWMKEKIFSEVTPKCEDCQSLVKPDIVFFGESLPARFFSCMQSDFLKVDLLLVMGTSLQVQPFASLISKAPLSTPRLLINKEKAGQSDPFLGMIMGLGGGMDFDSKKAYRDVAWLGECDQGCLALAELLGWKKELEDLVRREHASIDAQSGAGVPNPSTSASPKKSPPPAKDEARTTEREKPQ

[5] = Half life in Balb/c mouse at 10 mg/kg, po administered as single dose measured upto 24 hrs by LC-MS/MS analysis; type: ADME, organism-based; conditions: in vivo
[6] = Apparent volume of distribution during terminal phase in Balb/c mouse at 5 mg/kg, ip administered as single dose measured upto 24 hrs by LC-MS/MS analysis; type: ADME, organism-based; conditions: in vivo, 5 mg/kg, 24 h
[7] = molecular target: T2, Protein deacetylase HDAC6 (Homo sapiens, UniProt Q9UBN7); experiment: Inhibition of human HDAC6 using Ac-peptide as substrate preincubated for 15 mins followed by substrate and trypsin addition and further incubated for 60 mins
T2 sequence (Q9UBN7 whole entry): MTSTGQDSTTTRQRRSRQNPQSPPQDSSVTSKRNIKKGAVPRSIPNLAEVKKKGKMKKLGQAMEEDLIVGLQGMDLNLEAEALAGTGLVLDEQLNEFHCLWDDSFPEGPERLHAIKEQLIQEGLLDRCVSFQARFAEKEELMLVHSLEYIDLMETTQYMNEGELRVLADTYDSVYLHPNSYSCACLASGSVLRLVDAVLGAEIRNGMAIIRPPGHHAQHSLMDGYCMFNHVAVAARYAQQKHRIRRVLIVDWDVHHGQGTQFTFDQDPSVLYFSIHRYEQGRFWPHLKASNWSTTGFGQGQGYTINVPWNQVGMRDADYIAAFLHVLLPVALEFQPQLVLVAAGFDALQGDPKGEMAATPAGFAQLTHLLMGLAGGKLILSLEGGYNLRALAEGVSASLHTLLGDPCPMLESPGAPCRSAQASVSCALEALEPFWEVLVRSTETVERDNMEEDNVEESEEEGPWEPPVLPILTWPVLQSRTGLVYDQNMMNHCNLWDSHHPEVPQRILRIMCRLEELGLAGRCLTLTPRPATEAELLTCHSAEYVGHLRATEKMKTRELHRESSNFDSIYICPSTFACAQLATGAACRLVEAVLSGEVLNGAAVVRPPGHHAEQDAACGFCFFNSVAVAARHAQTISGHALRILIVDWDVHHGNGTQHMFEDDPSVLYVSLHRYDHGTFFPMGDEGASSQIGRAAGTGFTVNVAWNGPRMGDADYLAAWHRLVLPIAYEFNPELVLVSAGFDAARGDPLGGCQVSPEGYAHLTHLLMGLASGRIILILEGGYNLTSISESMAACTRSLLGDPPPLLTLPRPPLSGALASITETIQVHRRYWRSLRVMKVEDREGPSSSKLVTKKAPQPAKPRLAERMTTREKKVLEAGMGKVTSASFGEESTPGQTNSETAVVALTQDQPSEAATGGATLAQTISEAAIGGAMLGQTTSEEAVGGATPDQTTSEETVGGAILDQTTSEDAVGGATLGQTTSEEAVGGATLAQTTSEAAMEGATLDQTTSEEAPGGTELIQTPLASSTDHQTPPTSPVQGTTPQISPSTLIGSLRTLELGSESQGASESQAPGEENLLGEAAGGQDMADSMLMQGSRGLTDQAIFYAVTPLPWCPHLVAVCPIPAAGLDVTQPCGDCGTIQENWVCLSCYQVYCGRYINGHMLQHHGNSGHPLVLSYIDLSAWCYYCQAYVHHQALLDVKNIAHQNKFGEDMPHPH

Plasmodium berghei = experiment: Antiplasmodial activity against liver stage Plasmodium berghei infected in Balb/c mouse assessed as reduction in parasitemia at 30 mg/kg, ip administered as single dose and measured upto 96 hrs by microscopic analysis; type: functional, organism-based; conditions: time hrs <=96
[8] = Tmax in Balb/c mouse at 5 mg/kg, ip administered as single dose measured upto 24 hrs by LC-MS/MS analysis; type: ADME, organism-based; conditions: in vivo
Plasmodium falciparum [9] = experiment: Antimalarial activity against synchronized schizont stage transgenic Plasmodium falciparum 3D7 with C-terminal glmS-fused HDAC1 knockdown assessed as parasite growth inhibition pretreated with glucosamine followed by compound treatment and incubated for 4 hrs followed by compound washout for thrice and subsequent culturing for 68 hrs by SYBR Green 1 staining based analysis; type: functional, organism-based
[10] = AUC (0 to t) in Balb/c mouse at 2 mg/kg, iv administered as single dose measured upto 24 hrs by LC-MS/MS analysis; type: ADME, organism-based; parameters: route intravenous, dose 2 mg/kg, time <=24; conditions: in vivo
[11] = Cmax in Balb/c mouse at 10 mg/kg, po administered as single dose measured upto 24 hrs by LC-MS/MS analysis; type: ADME, organism-based; parameters: route oral, dose 10 mg/kg, time <=24; conditions: in vivo
[12] = AUC (0 to t) in Balb/c mouse at 10 mg/kg, po administered as single dose measured upto 24 hrs by LC-MS/MS analysis; type: ADME, organism-based; parameters: route oral, dose 10 mg/kg, time <=24; conditions: in vivo
[13] = Oral bioavailability in Balb/c mouse at 10 mg/kg administered as single dose measured upto 24 hrs by LC-MS/MS analysis; type: ADME, organism-based; conditions: in vivo
Plasmodium falciparum [14] = experiment: Antiplasmodial activity against artemisinin-resistant Plasmodium falciparum 6218 assessed as reduction in parasite survival at 700 nM incubated for 6 hrs followed by compound washout thrice and further cultured in compound free medium for 66 hrs by RSA; type: functional, organism-based
Plasmodium falciparum [15] = experiment: Antiplasmodial activity against synchronized ring stage Plasmodium falciparum 3D7 infected in human erythrocytes assessed as new ring stage formation at 10 times IC50 incubated for 12 hrs followed by compound washout and measured at 50 hrs by […] analysis; type: functional, organism-based; conditions: Erythrocyte

## Cl.O=C(NO)c1cnc(N2CCC3(CCN(Cc4c[nH]c5ccccc45)C3)CC2)nc1
[1]
  t1/2: 26.4 min
Plasmodium falciparum [2]
  IC50: 2.9 nM
Plasmodium yoelii
  Activity: Active
Plasmodium falciparum [3]
  IC50: 3.9 nM
[4]
  IC50: > 10000 nM
[5]
  half-life: 104 min
[6]
  Vz/F: 60.4 L/kg
[7]
  IC50: 32 nM
Plasmodium berghei
  Activity: Active
[8]
  Tmax: 15 min
Plasmodium falciparum [9]
  IC50: 4.3 nM
[10]
  AUC(0-t) at 24 h: 117 ng·h/mL
[11]
  Cmax: 2.49 ng/mL
[12]
  AUC(0-t) at 24 h: 2.94 ng·h/mL
[13]
  bioavailability: 0.5%
Plasmodium falciparum [14]
  Activity: Active
Plasmodium falciparum [15]
  Activity: Active
